Measured values as given in ChEMBL document CHEMBL2074509, “Uptake and efflux of the peptidic delta-opioid receptor agonist” (Neurosci Lett, 2001).

Biological target: ATP-dependent translocase ABCB1 (Mus musculus, UniProt P21447)
Assay: TP_TRANSPORTER: in situ brain perfusion in mdr1a(-/-) mouse
Assay type: functional, organism-based
Details: in vivo

Sequence of ATP-dependent translocase ABCB1 (P21447 whole entry, the tested form may be a part): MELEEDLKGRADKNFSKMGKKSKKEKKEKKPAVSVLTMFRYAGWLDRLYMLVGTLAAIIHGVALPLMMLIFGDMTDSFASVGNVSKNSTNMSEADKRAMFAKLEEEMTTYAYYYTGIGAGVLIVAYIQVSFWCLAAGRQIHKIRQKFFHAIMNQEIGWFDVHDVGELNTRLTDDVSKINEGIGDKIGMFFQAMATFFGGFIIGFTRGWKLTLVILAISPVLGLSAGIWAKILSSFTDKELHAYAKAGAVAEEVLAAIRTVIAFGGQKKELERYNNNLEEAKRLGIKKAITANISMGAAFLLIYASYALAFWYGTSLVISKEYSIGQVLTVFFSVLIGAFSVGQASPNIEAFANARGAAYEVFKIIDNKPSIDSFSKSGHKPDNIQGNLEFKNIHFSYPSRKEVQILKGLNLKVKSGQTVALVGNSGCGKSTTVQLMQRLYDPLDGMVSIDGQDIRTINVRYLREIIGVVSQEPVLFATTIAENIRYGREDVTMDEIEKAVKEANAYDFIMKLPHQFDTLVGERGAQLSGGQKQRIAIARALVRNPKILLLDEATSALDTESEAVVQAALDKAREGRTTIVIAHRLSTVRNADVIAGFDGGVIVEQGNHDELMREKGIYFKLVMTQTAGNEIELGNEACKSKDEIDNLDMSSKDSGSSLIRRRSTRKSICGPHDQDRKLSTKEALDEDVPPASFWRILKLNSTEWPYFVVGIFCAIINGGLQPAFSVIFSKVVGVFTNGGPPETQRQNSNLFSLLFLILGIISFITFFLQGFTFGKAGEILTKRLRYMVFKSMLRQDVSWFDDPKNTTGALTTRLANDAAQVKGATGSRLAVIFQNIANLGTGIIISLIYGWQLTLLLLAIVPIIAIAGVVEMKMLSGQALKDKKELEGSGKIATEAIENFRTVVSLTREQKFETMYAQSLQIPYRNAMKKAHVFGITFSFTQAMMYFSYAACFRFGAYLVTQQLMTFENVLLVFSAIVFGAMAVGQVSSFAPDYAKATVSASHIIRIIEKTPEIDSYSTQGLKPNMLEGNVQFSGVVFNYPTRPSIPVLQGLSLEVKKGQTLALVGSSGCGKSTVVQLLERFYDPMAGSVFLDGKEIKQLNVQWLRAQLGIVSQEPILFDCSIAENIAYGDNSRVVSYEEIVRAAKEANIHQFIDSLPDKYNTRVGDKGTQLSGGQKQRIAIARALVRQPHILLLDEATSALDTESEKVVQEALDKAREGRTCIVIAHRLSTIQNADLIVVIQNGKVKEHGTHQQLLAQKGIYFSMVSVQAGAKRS

SMILES: CC1(C)SSC(C)(C)[C@@H](NC(=O)[C@@H](N)Cc2ccc(O)cc2)C(=O)NCC(=O)N[C@@H](Cc2ccccc2)C(=O)N[C@H]1C(=O)O
- Activity: substrate [+]
